According to patent US20060073154A1 (priority 2001, published 2006):

Tests used:
[1] = tested on: streptococcal strain D471 adherence to Detroit 562 pharyngeal cells; format: cell-based, S. pyogenes
[2] = tested on: strain JRS75 adherence to Detroit 562 pharyngeal cells; test: Pharyngeal cell adherence assay with isogenic M-negative mutant; format: cell-based, S. pyogenes; conditions: bacteria preincubated with sialic acid
Procedure: Pharyngeal cell adherence and invasion assay. Streptococcal adherence to and invasion of the human pharyngeal cell line, Detroit 562, was assayed by modification of a procedure described previously (Talbot, U. M., et al., Infect. Immun. 64:3772-3777, 1996). Overnight cultures of streptococci were pelleted by centrifugation and washed twice in sterile PBS. The cultures were resuspended in MEM and diluted to a final concentration of 5×10^7 CFU/ml, and 1 ml aliquots were inoculated into each well containing washed Detroit cell monolayers. At least 3 wells were used for each bacterial strain or culture condition. Following a 3 h incubation period with the bacteria at 37° C., the monolayers were washed three times in PBS.
For the bacterial invasion assay, 1 ml of MEM supplemented with penicillin (10 μg/ml) and gentamicin (200 μg/ml) was added to each well (to kill extracellular bacteria) and incubated for 1 h at 37° C. […] The total number of adherent streptococci was calculated as the difference between the total number of adherent and invasive bacteria and the number of invasive bacteria alone.
Effect of monosaccharides on streptococcal adherence to pharyngeal cells. The effect of various monosaccharides on streptococcal adherence to pharyngeal cell monolayers was assessed in inhibition assays. […]

## CC(=O)N[C@H]1[C@H]([C@H](O)[C@H](O)CO)O[C@@](O[C@H]2[C@@H](O)[C@@H](CO)O[C@@H](O[C@H]3[C@H](O)[C@@H](O)C(O)O[C@@H]3CO)[C@@H]2O)(C(=O)O)C[C@@H]1O (stereo partly drawn) [3′SL, NeuAcα2-3Galβ1-4Glc]
[1]
  effect on adherence of strain D471 to cultured pharyngeal cells: no significant effect

## CC(=O)NC1C(O)CC(OCC2OC(OC3C(CO)OC(O)C(O)C3O)C(O)C(O)C2O)(C(=O)O)OC1C(O)C(O)CO (stereo not drawn) [6′SL, NeuACα2-6Galβ1-4Glc]
[1]
  reduced binding of strain D471 to pharyngeal cells: approximately 85%

## CC(=O)N[C@H]1[C@H]([C@H](O)[C@H](O)CO)OC(O)(C(=O)O)C[C@@H]1O (stereo partly drawn) [sialic acid, N-acetylneuraminic acid]
[1]
  effect on adherence of strain D471 to pharyngeal cells: significantly decreased
[2]
  effect on adherence of JRS75 (M-negative mutant) to pharyngeal cells: not affected

## transferrin: sialylated glycoprotein whose oligosaccharides terminate only in α2-6 linked sialic acid
[1]
  reduced adherence of strain D471 to cultured pharyngeal cells: approximately 90%

B1: Fetuin: sialylated glycoprotein containing both α2-3 and α2-6 sialic acid linkages (protein, UniProt P12763 19-359, looked up)
Alpha-2-HS-glycoprotein: IPLDPVAGYKEPACDDPDTEQAALAAVDYINKHLPRGYKHTLNQIDSVKVWPRRPTGEVYDIEIDTLETTCHVLDPTPLANCSVRQQTQHAVEGDCDIHVLKQDGQFSVLFTKCDSSPDSAEDVRKLCPDCPLLAPLNDSRVVHAVEVALATFNAESNGSYLQLVEISRAQFVPLPVSVSVEFAVAATDCIAKEVVDPTKCNLLAEKQYGFCKGSVIQKALGGEDVRVTCTLFQTQPVIPQPQPDGAEAEAPSAVPDAAGPTPSAAGPPVASVVVGPSVVAVPLPLHRAHYDLRHTFSGVASVESSSGEAFHVGKTPIVGQPSIPGGPVRLCPGRIRYFKI
[1]
  decrease of adherence of strain D471 to pharyngeal cells: approximately 30%
